Assay results published in patent US6610473B1 (priority 1999, dated 2003).

Biological target: HPV16-E6 protein (Human papillomavirus type 16, UniProt P03126)
Sequence (P03126 whole entry): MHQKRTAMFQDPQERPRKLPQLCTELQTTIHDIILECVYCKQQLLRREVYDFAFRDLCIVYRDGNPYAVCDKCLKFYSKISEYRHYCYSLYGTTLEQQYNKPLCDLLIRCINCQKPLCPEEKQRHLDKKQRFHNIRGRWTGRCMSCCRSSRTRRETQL

| Substance | clones obtained in another screening assay for HPV-E6 protein-binding peptides |
| --- | --- |
| NH2-LFDIFRLCAQ PVLVHGHTRV-COOH [E61-20.pep] | obtained |
| NH2-LVGRVRIGVS VFIRGGRLL-COOH [E61-19.pep] | obtained |
